Data from patent US4154727A, “Dipeptide derivatives and their production” (Shionogi & Co., Ltd., priority 1974, dated 1979).

Legend:
DS male mice [1] = test: Taming activity (inhibition of fighting responses); type: in vivo; details: given 60 minutes prior; inhibition of electroshock-induced fighting responses, 5 pairs of mice
Method: This test was measured on DS male mice. […] These pairs of mice were selected in the morning and used for drug test in the afternoon. The test compound was administered to both mice of the pairs 60 minutes prior to the experiment. Results were obtained as the mean percentage of inhibition of fighting responses in a group of 5 pairs and shown by ED50 [Tedeschi, et al.: J. Pharmacol Exp. Thev., 125, 28-34 (1959)].

DS male mice [2] = test: Rotarod performance activity; type: in vivo; details: fall from rod (5 rotations per minute) within less than 2 minutes; 10 mice per dose
Method: (3) Rotarod performance activity
This test was measured on DS male mice. The mouse was put on a scraped rod of wood, 3 cm in diameter, turning at the rate of five rotations per minute. The mice that could remain on the rod for three or more minutes in successive trials were selected and placed in a group of 10 mice for each dose. If the mouse fell down from the rod within less than 2 minutes, the test compound was considered to be effective. Results were shown by ED50 [Dunham, et al.: J. Am. Pharm. Assoc., 46, 208 (1957)].

Structure (SMILES)	Taming activity ED50 (DS male mice [1]) [mg/kg]	Rotarod performance ED50 (DS male mice [2]) [mg/kg]
CN(C(=O)CNC(=O)CN)c1ccc(Cl)cc1C(=O)c1ccccc1Cl.O [Compound No. 2, 2-o-chlorobenzoyl-4-chloro-N-methyl-N^α -glycyl-glycinanilide hydrate]	3.0	–
CN(C(=O)CNC(=O)CN)c1ccc(Cl)cc1C(=O)c1ccccc1F.Cl [Compound No. 3, 2-o-fluorobenzoyl-4-chloro-N-methyl-N^α -glycyl-glycinanilide hydrochloride]	1.6	17.0
